Test [1] has as its system diamondback moths (Plutella xylostella) with second instar larvae. Kind of test: Insecticidal test against diamondback moth (leaf dip). The format is in vivo. Particulars: foliar, 144 h, read-out: insecticidal rate (rate of dead insects). Here is the method:
Insecticidal Test Against Diamondback Moth
(§1) A 10% emulsifiable concentrate (depending on the compounds, 25% wettable powder was applied for the test) of the compound of the present invention was diluted with water containing a spreading agent to prepare a chemical solution with a concentration of 100 ppm. To the chemical solution was dipped leaves of Chinese olive for about 10 seconds, and after air-drying, they were placed in a laboratory dish, then, 10 diamondback moths (Plutella xylostella) with second instar larvae per the dish were released therein, and the dish was covered with a lid having holes and contained at a thermostat chamber at 25° C. A number of dead insect(s) after 6 days was counted and a rate of dead insects was calculated in the same manner as in Test Example 1. Incidentally, the test was carried out with two districts.

Test [2] concerns Common cutworms (Spodoptera litura) with second instar larvae. Kind of test: Insecticidal test against common cutworm (leaf dip). To be noted: foliar, 144 h, read-out: insecticidal rate (rate of dead insects). The class given is in vivo. As to the method:
Insecticidal Test Against Common Cutworm
as §1, with “10 Common cutworms (Spodoptera litura)” for “10 diamondback moths (Plutella xylostella)”, “calculated by” for “calculated in”, “the following calculation formula.” for “the same manner as in Test Example 1.”, “districts. Rate of dead insects (%)=(Number of dead insects/Number of released insects)×100” for “districts.”

Setting [3] is: chemical solution 100 ppm, leaf dip, 25° C., dead insects counted after 6 days.

Like-named read-outs stand apart in the source and are kept apart here.

This is an account of results in patent US20050250822A1, “Substituted benzanilide compound and noxious organism controlling agent” (priority 2002, published 2005).

Take `Cc1cc(C2(C(F)(F)F)C=NC(c3ccccc3)C2)ccc1NC(=O)c1cccc(I)c1C(=O)NC(C)C` (stereo not drawn) [7-04, 3-Iodo-N^2-isopropyl-N^1-[2-methyl-4-(2-phenyl-4-trifluoromethyl-3,4-dihydro-2H-pyrrol-4-yl)phenyl]phthalic diamide]: the pest or weed control at 100 ppm in test [1] (setting [3]) and in test [2] (setting [3]) was not below 80% throughout.

For the compound `CC1=NC(c2ccc(Cl)cc2)=CC(c2ccc(NC(=O)c3cccc(I)c3C(=O)NC(C)C)c(C)c2)(C(F)(F)F)N1` (stereo not drawn) [8-01, N^1-[4-[6-(4-chlorophenyl)-2-methyl-4-trifluoromethyl-3,4-dihydropyrimidin-4-yl]-2-methylphenyl]-3-iodo-N^2-isopropylphthalic diamide], the pest or weed control at 100 ppm in test [1] (setting [3]) and in test [2] (setting [3]) was not below 80% each time.

`Cc1cc(C2(C(F)(F)F)CC2(C#N)C#N)ccc1NC(=O)c1cccc(I)c1C(=O)NC(C)C` (stereo not drawn) [9-001, N^1-[4-(2,2-dicyano-1-trifluoromethylcyclopropyl)-2-methylphenyl]-3-iodo-N^2-isopropylphthalic diamide]: the pest or weed control at 100 ppm in test [1] (setting [3]) and in test [2] (setting [3]) was not below 80% each time.

On to `CSCC(C)NC(=O)c1c(I)cccc1C(=O)Nc1ccc(C2(c3ccc(Cl)cc3)CC2(F)F)cc1C` (stereo not drawn) [9-026, N^1-[4-(2,2-difluoro-1-(4-chlorophenyl)cyclopropyl)-2-methylphenyl]-3-iodo-N^2-(1-methyl-2-methylthioethyl)phthalic diamide], for which the pest or weed control at 100 ppm in test [1] (setting [3]) and in test [2] (setting [3]) was not below 80% in each case.

Turning to `CSCC(C)NC(=O)c1c(I)cccc1C(=O)Nc1ccc(C2(c3ccc(Cl)cc3)CC2(Cl)Cl)cc1C` (stereo not drawn) [9-041, N^1-[4-(2,2-dichloro-1-(4-chlorophenyl)cyclopropyl)-2-methylphenyl]-3-iodo-N^2-(1-methyl-2-methylthioethyl)phthalic diamide], the pest or weed control at 100 ppm in test [1] and in test [2] was not below 80% each time.

In the case of `Cc1cc(C2(c3ccc(Cl)cc3)CC2(F)F)ccc1NC(=O)c1cccc(I)c1C(=O)NC(C)CS(C)(=O)=O` (stereo not drawn) [9-065, N^1-[4-(2,2-difluoro-1-(4-chlorophenyl)cyclopropyl)-2-methylphenyl]-3-iodo-N^2-(1-methyl-2-methylsulfonylethyl)phthalic diamide], the pest or weed control at 100 ppm in test [1] (setting [3]) and in test [2] (setting [3]) was not below 80% throughout.
